Measured values published in article doi:10.1101/615575v1 (biorxiv, 2019).

Biological target: PdtaS (PdtaS-EGFP; mtPdtaS; Rv3220c) (Mycobacterium tuberculosis, UniProt P9WGL5)
Assay: biochemical

Sequence of PdtaS (PdtaS-EGFP; mtPdtaS; Rv3220c) (P9WGL5 whole entry): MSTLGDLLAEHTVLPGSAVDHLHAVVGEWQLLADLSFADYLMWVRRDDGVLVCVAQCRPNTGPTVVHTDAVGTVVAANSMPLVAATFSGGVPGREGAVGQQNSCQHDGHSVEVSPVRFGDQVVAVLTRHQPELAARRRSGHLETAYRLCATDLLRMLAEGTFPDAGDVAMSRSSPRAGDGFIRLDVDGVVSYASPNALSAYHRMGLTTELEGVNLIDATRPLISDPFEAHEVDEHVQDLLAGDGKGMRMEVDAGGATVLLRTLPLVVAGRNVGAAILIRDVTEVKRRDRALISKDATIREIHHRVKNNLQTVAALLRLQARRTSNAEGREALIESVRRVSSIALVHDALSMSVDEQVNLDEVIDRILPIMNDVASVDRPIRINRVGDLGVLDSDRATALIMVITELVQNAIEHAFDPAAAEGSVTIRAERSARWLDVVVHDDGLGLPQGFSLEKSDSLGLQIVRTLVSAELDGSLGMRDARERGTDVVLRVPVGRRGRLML

In the case of `Nc1nc2c(ncn2[C@@H]2O[C@@H]3CO[P@](=O)(O)O[C@H]4[C@@H](O)[C@H](n5cnc6c(=O)[nH]c(N)nc65)O[C@@H]4CO[P@](=O)(O)O[C@H]3[C@H]2O)c(=O)[nH]1` [c-di-GMP], the Kd is reported as 326 ± 107 nM.
